Data from publication PMC11843331, “Metal-Triggered FAD Reduction in D-2-Hydroxyglutarate Dehydrogenase from Pseudomonas aeruginosa PAO1” (ACS Bio & Med Chem Au, 2024).

Molecular target: T1, PaD2HGDH; Pseudomonas aeruginosa D-2-hydroxyglutarate dehydrogenase (Pseudomonas aeruginosa, UniProt Q9I6H4)
T1 construct: gene PA0317; recombinant from pET20b(+) harboring PA0317 (GenScript), purified to homogeneity; FAD- and Zn2+-containing
T1 sequence (Q9I6H4 1-464): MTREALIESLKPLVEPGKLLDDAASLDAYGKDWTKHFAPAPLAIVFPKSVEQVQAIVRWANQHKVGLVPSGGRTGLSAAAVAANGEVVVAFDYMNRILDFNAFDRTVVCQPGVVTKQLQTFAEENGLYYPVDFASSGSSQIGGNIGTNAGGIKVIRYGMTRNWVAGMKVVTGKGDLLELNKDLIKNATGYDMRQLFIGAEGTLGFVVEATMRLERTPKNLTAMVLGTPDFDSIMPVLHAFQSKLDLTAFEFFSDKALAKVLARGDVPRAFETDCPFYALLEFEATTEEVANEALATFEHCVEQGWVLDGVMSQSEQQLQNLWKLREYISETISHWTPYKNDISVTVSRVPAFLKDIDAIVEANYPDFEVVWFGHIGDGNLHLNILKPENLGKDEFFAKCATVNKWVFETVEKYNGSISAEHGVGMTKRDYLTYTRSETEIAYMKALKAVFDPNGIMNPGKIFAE
Experiment: UV-visible absorption of enzyme-bound flavin, anaerobic reduction by D-malate
Format: binding
Conditions: 1 mM ZnCl2, pH 10.0, 25 °C; co-purified bound cofactor

## Cc1cc2nc3c(=O)[nH]c(=O)nc-3n(C[C@H](O)[C@H](O)[C@H](O)COP(=O)(O)OP(=O)(O)OC[C@H]3O[C@@H](n4cnc5c(N)ncnc54)[C@H](O)[C@@H]3O)c2cc1C [FAD]
  UV-visible absorption of enzyme-bound flavin, anaerobic reduction by D-malate: characteristic properties of a fully reduced PaD2HGDH-bound flavin, as previously reported
